These results are taken from US20230365537A1, “POLO LIKE KINASE 4 INHIBITORS” (ORIC Pharmaceuticals, Inc., priority 2021, published 2023).

The target of assay [1] is human recombinant Aurora B (Homo sapiens (Human), UniProt Q96GD4). The assay is described as follows: Aurora B Kinase Biochemical Assay (ADP-Glo). The note with it: ratio of Aurora B IC50 to PLK4 IC50 (selectivity). Put shortly:
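Recombinant human Aurora B (20 nM in pH 7.5 HEPES buffer with MgCl2, EGTA, DTT, Brij-35, BSA) preincubated with compound 15 min at RT. ADP formed quantified by ADP-Glo luminescence after ATP depletion (40 min) and detection (30 min). IC50 from four-parameter non-linear regression.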

For assay [2], the target named is human recombinant Aurora A (Homo sapiens (Human), UniProt O14965). The experiment in a line: Aurora A Kinase Biochemical Assay (ADP-Glo). The note with it: ratio of Aurora A IC50 to PLK4 IC50 (selectivity).
Chain of human recombinant Aurora A (O14965 whole entry): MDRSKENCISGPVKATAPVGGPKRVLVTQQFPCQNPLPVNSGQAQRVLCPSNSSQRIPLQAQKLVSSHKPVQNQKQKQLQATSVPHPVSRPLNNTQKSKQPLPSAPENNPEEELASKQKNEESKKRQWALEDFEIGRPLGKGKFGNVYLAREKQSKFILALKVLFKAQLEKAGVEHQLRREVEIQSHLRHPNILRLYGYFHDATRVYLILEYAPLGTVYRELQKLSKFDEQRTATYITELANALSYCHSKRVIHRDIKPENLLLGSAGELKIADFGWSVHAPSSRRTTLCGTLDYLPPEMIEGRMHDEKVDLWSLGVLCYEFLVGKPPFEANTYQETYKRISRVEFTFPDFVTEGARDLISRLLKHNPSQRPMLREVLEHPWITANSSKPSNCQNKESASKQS
In the next assay the test system is CHP-134 cells. The assay is described as follows: CHP134 CellTiter-Glo (CTG) Assay. The format is cell-based. The following applies: Homo sapiens, CHP-134, 120 h, 5 days, viable cells by CellTiter-Glo. Put shortly: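 CHP-134 cells seeded at 200 cells/well for 16 h, then given nine 1:3 serial dilutions in quadruplicate at 37° C, 5% CO2. Viable cells measured by CellTiter-Glo luminescence after 5 days; IC50 calculated from curves.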

A further assay concerns the target human recombinant PLK4 (Homo sapiens (Human), UniProt O00444). The assay is described as follows: PLK4 Biochemical Assay (ADP-Glo). The following applies: 0.5 nM PLK4, 8.0 µM ATP, 4.7 µM MBP, 6 hours at RT. Put shortly:
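Recombinant human PLK4 (added at 1.0 nM) was preincubated 15 min at RT with compound in 50 mM HEPES pH 7.5, 10 mM MgCl2, 1 mM EGTA, 1 mM DTT, 0.01% Brij-35, 0.01% BSA. ADP formed was detected by ADP-Glo luminescence (40 min ATP depletion, 30 min detection). IC50 came from a four-parameter fit.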

Chain of human recombinant PLK4 (O00444 whole entry): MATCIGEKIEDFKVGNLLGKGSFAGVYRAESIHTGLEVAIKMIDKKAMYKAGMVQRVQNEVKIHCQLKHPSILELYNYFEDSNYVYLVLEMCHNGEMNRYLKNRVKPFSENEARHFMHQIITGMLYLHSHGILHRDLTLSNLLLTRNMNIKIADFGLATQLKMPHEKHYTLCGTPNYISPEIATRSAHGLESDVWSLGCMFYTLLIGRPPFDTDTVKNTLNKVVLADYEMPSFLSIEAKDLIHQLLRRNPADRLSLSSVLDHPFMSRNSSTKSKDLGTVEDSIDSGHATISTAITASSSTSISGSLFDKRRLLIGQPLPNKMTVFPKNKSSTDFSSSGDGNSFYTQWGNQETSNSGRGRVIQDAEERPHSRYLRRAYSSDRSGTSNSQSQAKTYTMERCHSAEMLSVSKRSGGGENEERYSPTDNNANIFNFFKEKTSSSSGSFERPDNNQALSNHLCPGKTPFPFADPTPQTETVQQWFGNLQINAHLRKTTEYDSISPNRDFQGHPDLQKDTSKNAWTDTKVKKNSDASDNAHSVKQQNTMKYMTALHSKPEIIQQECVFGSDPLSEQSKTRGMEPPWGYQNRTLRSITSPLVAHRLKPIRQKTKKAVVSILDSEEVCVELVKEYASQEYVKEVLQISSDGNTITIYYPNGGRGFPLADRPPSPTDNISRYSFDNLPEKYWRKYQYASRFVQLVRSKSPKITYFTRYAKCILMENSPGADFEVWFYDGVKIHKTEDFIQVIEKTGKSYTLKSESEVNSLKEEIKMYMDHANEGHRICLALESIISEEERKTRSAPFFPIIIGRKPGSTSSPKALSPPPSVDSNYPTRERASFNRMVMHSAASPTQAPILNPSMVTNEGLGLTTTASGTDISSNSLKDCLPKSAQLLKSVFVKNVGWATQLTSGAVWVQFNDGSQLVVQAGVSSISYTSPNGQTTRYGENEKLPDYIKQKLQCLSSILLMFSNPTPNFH
Chain of human recombinant Aurora B (Q96GD4 whole entry): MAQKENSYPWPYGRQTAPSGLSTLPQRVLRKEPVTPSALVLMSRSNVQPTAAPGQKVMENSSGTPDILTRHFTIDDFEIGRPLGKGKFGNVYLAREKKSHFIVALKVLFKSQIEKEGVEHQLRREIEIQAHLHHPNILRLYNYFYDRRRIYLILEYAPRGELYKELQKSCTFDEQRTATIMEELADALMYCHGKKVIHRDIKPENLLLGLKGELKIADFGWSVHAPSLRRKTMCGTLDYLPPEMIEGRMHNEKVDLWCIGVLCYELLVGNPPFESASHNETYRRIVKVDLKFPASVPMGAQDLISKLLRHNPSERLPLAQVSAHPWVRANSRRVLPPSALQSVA

On to `COc1ccc2c(c1)[C@]1(C[C@H]1c1ccc3c(Nc4nc(C)ccc4OC)n[nH]c3c1)C(=O)N2` [Example 88, (1R,2S)-5′-methoxy-2-{3-[(3-methoxy-6-methylpyridin-2-yl)amino]-1H-indazol-6-yl}spiro[cyclopropane-1,3′-indol]-2′(1′H)-one], for which, in assay [1], the “[Aurora B IC50 (nM)]/[PLK4 IC50 (nM)]” value was 44.7979. Further, the “[Aurora A IC50 (nM)]/[PLK4 IC50 (nM)]” value in assay [2] is 1997.754. Besides, the IC50 in the assay on CHP-134 cells was 1810 nM; at human recombinant PLK4, 2.67 nM.

For the compound `COc1ccc2c(c1)[C@]1(C[C@H]1c1ccc3c(Nc4cc(C)cnc4OC)n[nH]c3c1)C(=O)N2` [Example 89, (1R,2S)-5′-methoxy-2-{3-[(2-methoxy-5-methylpyridin-3-yl)amino]-1H-indazol-6-yl}spiro[cyclopropane-1,3′-indol]-2′(1′H)-one], in assay [1], the “[Aurora B IC50 (nM)]/[PLK4 IC50 (nM)]” value is on record as 314.3289. The “[Aurora A IC50 (nM)]/[PLK4 IC50 (nM)]” value in assay [2] is reported as 1736.729. Moreover, the half-maximal inhibitory concentration (IC50) in the assay with CHP-134 cells was 10000 nM; at human recombinant PLK4, 2.32 nM.

Regarding `COc1ccc2c(c1)[C@]1(C[C@H]1c1ccc3c(Nc4cc(C5CC5)nn4C)n[nH]c3c1)C(=O)N2` [Example 91, (1R,2S)-2-{3-[(3-cyclopropyl-1-methyl-1H-pyrazol-5-yl)amino]-1H-indazol-6-yl}-5′-methoxyspiro[cyclopropane-1,3′-indol]-2′(1′H)-one], the “[Aurora B IC50 (nM)]/[PLK4 IC50 (nM)]” value in assay [1] is recorded as 79.87. Besides, in assay [2], the “[Aurora A IC50 (nM)]/[PLK4 IC50 (nM)]” value was 436.427. For the same compound, the IC50 with CHP-134 cells came out at 3200 nM; at human recombinant PLK4, 4.02 nM.

`COc1ccc2c(c1)[C@]1(C[C@H]1c1ccc3c(Nc4ncc(N5CCOCC5)nc4OC)n[nH]c3c1)C(=O)N2` [Example 94, (1R,2S)-5′-methoxy-2-(3-{[3-methoxy-5-(morpholin-4-yl)pyrazin-2-yl]amino}-1H-indazol-6-yl)spiro[cyclopropane-1,3′-indol]-2′(1′H)-one]: the “[Aurora B IC50 (nM)]/[PLK4 IC50 (nM)]” value in assay [1] is listed as 41.732. In addition, the “[Aurora A IC50 (nM)]/[PLK4 IC50 (nM)]” value in assay [2] was determined as 533.856. Also, the IC50 worked out at 4600 nM with CHP-134 cells and 5.61 nM at human recombinant PLK4.

As for `COc1ccc2c(c1)[C@]1(C[C@H]1c1ccc3c(Nc4ccnc(N5CCOCC5)c4OC)n[nH]c3c1)C(=O)N2` [Example 95, (1R,2S)-5′-methoxy-2-(3-{[3-methoxy-2-(morpholin-4-yl)pyridin-4-yl]amino}-1H-induzol-6-yl)spiro[cyclopropane-1,3′-indol]-2′(1′H)-one], in assay [1], the “[Aurora B IC50 (nM)]/[PLK4 IC50 (nM)]” value was 54.26. Also, the “[Aurora A IC50 (nM)]/[PLK4 IC50 (nM)]” value in assay [2] worked out at 2386.677. For the same compound, the IC50 in the assay on CHP-134 cells is 319 nM; at human recombinant PLK4, 1.31 nM.

On to `COc1ccc2c(c1)[C@]1(C[C@H]1c1ccc3c(Nc4cc(C)ncc4Cl)n[nH]c3c1)C(=O)N2` [Example 96, (1R,2S)-2-{3-[(5-chloro-2-methylpyridin-4-yl)amino]-1H-indazol-6-yl}-5′-metboxyspiro[cyclopropane-l,3′-indol]-2′(1′H)-one], for which the “[Aurora B IC50 (nM)]/[PLK4 IC50 (nM)]” value in assay [1] was determined as 351.8943. For the same compound, the “[Aurora A IC50 (nM)]/[PLK4 IC50 (nM)]” value in assay [2] came out at 511.3656. Besides, the half-inhibitory concentration (IC50) in the assay with CHP-134 cells is 56.6 nM; at human recombinant PLK4 it was 11.3 nM.

In the case of `COc1ccc2c(c1)[C@]1(C[C@H]1c1ccc3c(Nc4nc(N5CCOCC5)ncc4OC)n[nH]c3c1)C(=O)N2` [Example 97, (lR,2S)-5′-methoxy-2-(3-{[5-methoxy-2-(morpholin-4-yl)pyrimidin-4-yl]amino}-1H-indazol-6-yl)spiro[cyclopropane-1,3′-indol]-2′(1′H)-one], the “[Aurora B IC50 (nM)]/[PLK4 IC50 (nM)]” value in assay [1] is given as 520.2809. The “[Aurora A IC50 (nM)]/[PLK4 IC50 (nM)]” value in assay [2] was determined as 309.2186. Also, the IC50 in the assay on CHP-134 cells came to 222 nM; on human recombinant PLK4, 1.14 nM.

Turning to `COc1ccc2c(c1)[C@]1(C[C@H]1c1ccc3c(Nc4nc(C)ncc4Cl)n[nH]c3c1)C(=O)N2` [Example 98, (1R,2S)-2-{3-[(5-chloro-2-methylpyrimidin-4-yl)amino]-1H-indazol-6-yl)-5′-methoxyspiro[cyclopropane-1,3′-indol]-2′(1′H)-one], the “[Aurora B IC50 (nM)]/[PLK4 IC50 (nM)]” value in assay [1] is recorded as 305.5335. Further, in assay [2], the “[Aurora A IC50 (nM)]/[PLK4 IC50 (nM)]” value stood at 787.0003. In addition, the results for the 50% inhibitory concentration (IC50) with CHP-134 cells and on human recombinant PLK4 were 65.8 nM and 7.55 nM, respectively.
